Counter-ions that a name gives are not always drawn.
Key:
HIV = test: Test of preparations against HIV in cell culture (T-cell culture assay); assay type: cell-based; conditions: lowest concentration where no giant cells were observed; HIV-infected lymphocytes from donor blood, 3 days at 37° C.
Description: Test of Preparations Against HIV in Cell Culture
Complete medium additionally contains 20% fetal calf serum and 40 IU/ml recombinant interleukin 2.
Lymphocytes which have been isolated from fresh donor blood by means of Ficoll gradient centrifugation are cultured for 36 hours in complete medium with an addition of 2 μg/ml phytohemagglutinin (Wellcome) at 37° C. under 5% of CO2. After 10% of DMSO has been added, the cells are frozen at a density of 5 [formula]10^6 and stored in liquid nitrogen. For the test, the cells are defrosted, washed in RPMI medium and cultured for 3-4 days in the complete medium.
The test preparations were dissolved in DMSO at a concentration of 16.7 mg/ml and diluted in complete medium to 1 mg/ml.
0.4 ml of medium was introduced into 24-multiwell dishes. 0.1 ml of the dissolved preparation was added to the upper row of the dish, and, by transferring 0.1 ml portions, a geometric dilution series was established. Controls without preparation always contained 0.4 ml of complete medium containing 0.5% of DMSO. Lymphocyte cultures with a cell density of 5 [formula]10^5 cells/ml were infected by adding 1/50 volume supernatant from HIV-infected lymphocyte cultures. The titer of these culture supernatants was determined by end-point titration as 1-5 [formula]10^6 infectious units/ml. After 30 minutes' incubation at 37° C., the infected lymphocytes were removed by centrifugation and taken up in an equal volume of medium. From this cell suspension, 0.6 ml aliquots were transferred into all wells of the test plate. The mixtures were incubated for 3 days at 37° C.
The infected cell cultures were examined under the microscope for the presence of giant cells, which indicate active virus multiplication in the culture. The lowest concentration of preparation where no giant cells were observed was determined as inhibitory concentration against HIV. As a control, the supernatants from the culture plates were tested for the presence of HIV antigen with the aid of an HIV antigen test following the manufacturer's instructions (Organon).

[1] = biological target: T1, HIV reverse transcriptase (RT) (Human immunodeficiency virus type 1 group M subtype B, UniProt P03366); test: Assay for HIV reverse transcriptase inhibition (scintillation proximity assay); assay type: biochemical; conditions: RT from HIV cloned in E. coli; SPA, 60 minutes (37° C.)
T1 construct: The enzyme RT (from HIV cloned in E. coli); purchased HT-Biotechnology Ltd, Cambridge, UK; host or cells: E. coli
Description: Assay of the Substances for HIV Reverse Transcriptase Inhibition
The activity of reverse transcriptase (RT) was determined with the aid of a scintillation proximity assay (SPA).
The reagent kit for the RT-SPA was obtained from Amersham/Buchler (Braunschweig).
The enzyme RT (from HIV cloned in E. coli) originated from HT-Biotechnology Ltd, Cambridge, UK.
The assay was carried out using the manufacturer's (Amersham) protocol manual, with the following modifications: bovine serum albumin was added to the assay buffer to give an end concentration of 0.5 mg/ml the assay was carried out in Eppendorf reaction vessels, using 100 μl volume per batch the manufacturer's RT concentrate (5000 U/ml) was diluted in Tris-HCl buffer 20 mM; pH 7.2; 30% of glycerol, to an activity of 15 U per ml the incubation time for the mixtures was 60 minutes (37° C.) after stopping the reaction and “developing” with the bead suspension, 130 μl of mixture were transferred to 4.5 ml of Tris-HCl buffer, 10 mM; pH 7.4; 0.15 M NaCl, and the tritium activity was measured by means of a [formula]-counter.
For a pre-assay for inhibitory activity, the substances were dissolved in DMSO (stock solution c=1 mg/ml), and tested as a 10^−1, 10^−2, 10^−3, etc., dilution in DMSO.
To determine IC50 values, the inhibitor stock solutions were diluted further in Tris-HCl buffer, 50 mM, pH 8, and tested in suitable concentrations.
The concentration corresponding to a 50% enzyme inhibition was determined from a plot of RT activity versus log Clnh.

SMILES	melting point	T-cell culture assay MIC (HIV)	Reverse Transcriptase Assay IC50 [1]
CC(C)CC1Nc2c(S(=O)(=O)Oc3ccccc3)ccc(N3CCN(C)CC3)c2NC1=O (stereo not drawn) (as salt: hydrochloride) [XXXII, 8-(4-Methyl-1-piperazinyl)-3-(2-methylpropyl)-5-phenoxysulfonyl-3,4-dihydroquinoxalin-2(1H)-one]	≥ 90 °C (dec.)		
CC1C(=O)Nc2ccc(Cl)cc2N1C1CC1 (racemic) [Example XVIII, (3RS)-6-Chloro-4-N-(cyclopropyl)-3-methyl-3,4-dihydroquinoxalin-2(1H)-one]	167 °C		
CC(C)=CCN1c2ccccc2NC(=O)C1C (racemic) [XXV, (3RS)-3-Methyl-4-N-(3-methyl-2-buten-1-yl)-3,4-dihydroquinoxalin-2(1H)-one]	92 to 93 °C		
CC(=O)CCN1c2ccccc2NC(=O)C1C (racemic) [XXXIV, (3RS)-3-Methyl-4-N-(3-oxo-1-butyl)-3,4-dihydroquinoxalin-2(1H)-one]	108 to 109 °C		
CCOC(=O)N1c2cc(Cl)ccc2NC(=O)C1C (stereo not drawn) [Example 3-23]		0.08 µg/mL	0.1 to 1 µg/mL
CCCOC(=O)N1c2cc(Cl)ccc2NC(=O)C1C (stereo not drawn) [Example 3-24]		0.08 µg/mL	0.1 to 1 µg/mL
CCCCOC(=O)N1c2cc(Cl)ccc2NC(=O)C1C (stereo not drawn) [Example 3-25]		0.4 µg/mL	0.1 to 1 µg/mL
CCC1C(=O)Nc2ccc(Cl)cc2N1CC=C(C)C (stereo not drawn) [Example 3-29]		<0.4 µg/mL	0.1 to 1 µg/mL
C=C(C)OC(=O)N1c2cc(Cl)ccc2NC(=O)C1CC (stereo not drawn) [Example 3-30]		<0.01 µg/mL	0.025 µg/mL
C=CCOC(=O)N1c2cc(Cl)ccc2NC(=O)C1CC (stereo not drawn) [Example 3-32]		<0.4 µg/mL	approx. 0.1 μg/ml
C=C(C)OC(=O)N1c2cc(Cl)ccc2NC(=O)C1CC(C)C (stereo not drawn) [Example 3-49]		<0.8 µg/mL	approx. 1 μg/ml
C=C(C)OC(=O)N1c2ccc(Cl)cc2NC(=O)C1C(C)C (stereo not drawn) [Example 3-57]		<0.8 µg/mL	approx. 1 μg/ml
CSCC1C(=O)Nc2ccc(Cl)cc2N1CC=C(C)C (stereo not drawn) [Example 3-75]		<0.8 µg/mL	0.1 to 1 µg/mL
C=C(C)OC(=O)N1c2cc(Cl)ccc2NC(=O)C1CSC (stereo not drawn) [Example 3-76]		<0.08 µg/mL	0.018 µg/mL
C=C(C)OC(=O)N1c2cc(Cl)ccc2NC(=O)C1C(C)CC (stereo not drawn) [Example 3-81]		0.08 µg/mL	approx. 1 μg/ml
CC(C)=CCN1c2cc(Cl)ccc2NC(=O)C1(C)C [Example 6-1]		0.4 µg/mL	approx. 1 μg/ml
CC(C)=CCN1c2cccc(C)c2NC(=O)C1(C)C [Example 6-16]		<0.8 µg/mL	approx. 1 μg/ml
C=C(C)OC(=O)N1c2cccc(C)c2NC(=O)C1(C)C [Example 6-17]		<0.8 µg/mL	0.1 to 1 µg/mL
CC(C)=CCN1c2ccc(C)c(C)c2NC(=O)C1(C)C [Example 6-27]		<0.4 µg/mL	approx. 1 μg/ml
C=C(C)OC(=O)N1c2ccc(C)c(C)c2NC(=O)C1(C)C [Example 6-35]		<0.08 µg/mL	0.1 to 1 µg/mL
CC(C)OC(=O)N1c2cc(Cl)ccc2NC(=O)C1(C)C [Example 6-50]		<0.01 µg/mL	0.01 to 0.1 µg/mL
CC(C)=CCN1c2cc(Cl)ccc2NC(=S)C1C (stereo not drawn) [Example 7-2]		<0.01 µg/mL	0.07 µg/mL

SMILES	melting point	T-cell culture assay MIC (HIV)	Reverse Transcriptase Assay IC50 [1]
CC1C(=S)Nc2ccc(Cl)cc2N1Cc1ccccc1 (stereo not drawn) [Example 7-3]		<0.01 µg/mL	0.07 µg/mL
CC(C)=CCN1c2cc(Cl)ccc2NC(=S)C1(C)C [Example 7-7]		0.04 µg/mL	0.1 µg/mL
C=CCOC(=O)N1c2cc(Cl)ccc2NC(=S)C1C (stereo not drawn) [Example 7-10]		<0.04 µg/mL	0.11 µg/mL
C=C(C)OC(=O)N1c2cc(Cl)ccc2NC(=S)C1(C)C [Example 7-11]		<0.01 µg/mL	0.01 µg/mL
C=C(C)OC(=O)N1c2ccc(Cl)cc2NC(=S)C1(C)C [Example 7-12]		<0.8 µg/mL	approx. 1 μg/ml
CC1(C)Nc2cc(Cl)ccc2NC1=S [Example 7-13]		<0.08 µg/mL	0.1 to 1 µg/mL
C=C(C)OC(=O)N1c2cc(Cl)ccc2NC(=S)C1CC (stereo not drawn) [Example 7-14]		<0.08 µg/mL	0.01 to 0.1 µg/mL
CC(C)=CCN1c2cc(C)c(C)cc2NC(=S)C1(C)C [Example 7-16]		0.4 µg/mL	approx. 1 μg/ml
C=CCOC(=O)N1c2cc(Cl)ccc2NC(=S)C1(C)C [Example 7-21]		<0.01 µg/mL	0.01 to 0.1 µg/mL
CC(C)OC(=O)N1c2cc(Cl)ccc2NC(=S)C1(C)C [Example 7-22]		<0.01 µg/mL	0.01 to 0.1 µg/mL
C=C(C)OC(=O)N1c2cc(Cl)ccc2NC(=S)C1CSC (stereo not drawn) [Example 7-23]		<0.01 µg/mL	0.01 to 0.1 µg/mL
C#CCN1c2cc(Cl)ccc2NC(=O)C1C (stereo not drawn) [Example 10-9]		<0.8 µg/mL	approx. 1 μg/ml
CC1C(=O)Nc2ccc(Cl)cc2N1Cc1ccccn1 (stereo not drawn) [Example 10-10]		0.08 µg/mL	approx. 1 μg/ml
CC1C(=O)Nc2ccc(Cl)cc2N1Cc1ccco1 (stereo not drawn) [Example 10-13]		0.08 µg/mL	approx. 1 μg/ml
CC1C(=O)Nc2ccc(Cl)cc2N1Cc1cccc([N+](=O)[O-])c1 (stereo not drawn) [Example 10-17]		0.8 µg/mL	approx. 1 μg/ml
CC1C(=O)Nc2ccc(Cl)cc2N1Cc1ccccc1[N+](=O)[O-] (stereo not drawn) [Example 10-18]		<0.8 µg/mL	0.1 to 1 µg/mL
CC1C(=O)Nc2ccc(Cl)cc2N1Cc1cccc(Cl)c1 (stereo not drawn) [Example 10-20]		<0.8 µg/mL	0.1 to 1 µg/mL
CC1C(=O)Nc2ccc(Cl)cc2N1Cc1ccccc1Cl (stereo not drawn) [Example 10-21]		<0.8 µg/mL	0.1 to 1 µg/mL
CC1C(=O)Nc2ccc(Cl)cc2N1Cc1c(Cl)cccc1Cl (stereo not drawn) [Example 10-27]		0.8 µg/mL	0.1 to 1 µg/mL
CC1C(=O)Nc2ccc(Cl)cc2N1Cc1cc(Cl)cc(Cl)c1 (stereo not drawn) [Example 10-28]		<0.8 µg/mL	0.1 to 1 µg/mL
CC(C)OC(=O)N1c2cc(Cl)ccc2NC(=O)C1C (stereo not drawn) [Example 11-11]		0.01 µg/mL	0.1 to 1 µg/mL
C=C(C)OC(=O)N1c2cc(Cl)ccc2NC(=O)[C@@H]1C [Example XIII, (3S)-6-Chloro-N-(isopropenyloxycarbonyl)-3-methyl-3,4-dihydroquinoxalin-2(1H)-one]		<0.16 µg/mL	0.04 µg/mL

From patent publication US6369057B1, “Quinoxalines, processes for their preparation and their use” (Aventis Pharma Deutschland GmbH, priority 1991, dated 2002)
